Read-outs that look alike come from different tables or passages of the source.
Tests used:
[1] = Brain and plasma concentrations in mouse by HPLC/MS/MS; type: in vivo; settings: 2.5 mg/kg IV
Method: Brain and plasma concentrations of select ROCK inhibitors were evaluated in mouse by HPLC/MS/MS at 15 min and 2 hrs following 2.5 mg/kg IV drug administration.

[2] = molecular target: recombinant ROCK2 (amino acids 1-552) (Homo sapiens (Human), UniProt O75116); experiment: Z'-lyte kinase assay, ROCK2; type: biochemical
Chain of recombinant ROCK2 (amino acids 1-552) (O75116 1-552): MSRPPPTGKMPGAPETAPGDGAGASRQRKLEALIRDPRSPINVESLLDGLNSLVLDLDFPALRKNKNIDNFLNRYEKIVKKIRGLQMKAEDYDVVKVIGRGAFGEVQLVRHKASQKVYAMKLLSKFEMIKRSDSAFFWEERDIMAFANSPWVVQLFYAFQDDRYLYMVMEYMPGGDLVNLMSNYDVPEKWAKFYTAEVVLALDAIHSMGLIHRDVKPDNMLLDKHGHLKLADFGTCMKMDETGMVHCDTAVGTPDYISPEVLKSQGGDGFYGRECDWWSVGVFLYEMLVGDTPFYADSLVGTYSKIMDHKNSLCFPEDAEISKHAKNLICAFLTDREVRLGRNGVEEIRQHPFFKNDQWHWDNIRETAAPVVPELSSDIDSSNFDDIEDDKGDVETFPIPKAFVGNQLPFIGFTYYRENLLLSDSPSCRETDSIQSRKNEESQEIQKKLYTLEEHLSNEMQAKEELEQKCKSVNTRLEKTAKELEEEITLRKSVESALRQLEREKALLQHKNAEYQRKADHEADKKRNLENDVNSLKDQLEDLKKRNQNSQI
In short: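 Inhibition of recombinant human ROCK2 (residues 1-552, sourced from ThermoFisher Scientific) was assessed in vitro with the Z'-lyte kinase kit. Kinase activity with compound was normalized to DMSO control to give percent inhibition. IC50s came from 9-point 2-fold serial dilutions fitted by nonlinear regression in GraphPad Prism.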

[3] = tested on: bleomycin induced lung fibrosis; experiment: Bleomycin induced lung fibrosis in mice (prophylactic administration); type: in vivo, mouse; settings: oral once daily, 21-day treatment; ≥10 mg/kg
Method: Bleomycin induced lung fibrosis in mice (Phrophylactic administration): Male C57B/L6 mice were ear tagged and weighed prior to the start of the study. Treatment group animals were treated with the compound on day −1 pre-bleomycin and all subsequent days post-bleomycin administration. On day 0, animals in disease groups received 1.5 U/kg dose of bleomycin via oropharyngeal route. The non-bleomycin control group received sterile saline. Animals were closely monitored daily till the end of the study. On day 21 following bleomycin administration, all animals were euthanized and blood, lung, and bronchoalveolar lavage (BAL) fluid were collected. Blood samples were used for plasma preparation; total leukocytes were counted in BAL fluid; and lungs were fixed in 10% neutral buffered formalin for histopathological analysis. Based on the strong anti-fibrotic cellular activity of ROCK inhibitors of this invention, the ability of such inhibitors to attenuate fibrosis in the in vivo setting was assessed in several mouse models of fibrotic diseases including the bleomycin induced pulmonary fibrosis. […] The improvement in the overall lung fibrosis, α-smooth muscle actin (αSMA) percentage positive area and total leukocytes count in bronchoalveolar lavage fluid was quantitated by applying the Ashcoft score criteria to the histopathology images, IHC quantitation and flowcytometry respectively.

[4] = tested on: ACTA2-promoter-driven-luciferase in NIH3T3 cells; experiment: NIH3T3 Acta2-promoter driven-luciferase assay; type: cell-based; settings: Mus musculus, plus TGFβ1, 24 hr, read-out: NIH3T3, Acta2-luc, IC50
In short: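 Stable NIH3T3 line carrying luciferase reporter under human ACTA2 promoter (−1000-1 bp); confluent cells given 9-point compound dilutions with TGFβ1 for 24 hr. Lysed cells read for luciferase; IC50 from nonlinear regression fit.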

[5] = tested on: histamine-induced vascular permeability; experiment: Histamine-induced vascular permeability model in mice; type: in vivo, mouse; settings: single oral dose 1 hr. prior to histamine injection
Method: Histamine-induced vascular permeability model in mice: 7-8 weeks old Balb/c female mice were acclimated at least 3 days, and randomly assigned to groups. Animals were injected i.v. with 1% Evans Blue at a dose 100 μl/mouse. 10 minutes later animals in disease groups were given 1 μg of histamine in 20 μl PBS intradermally on the back and sacrificed 20 minutes after administration. 20 μL PBS were injected intradermal into the animal back in sham control. Vehicle and test articles were dosed via oral gavage accordingly. Positive control salbutamol was administered 15 minutes before Evans blue. 20 minutes post challenge with histamine, animals were euthanized. The skin was then inverted, the lesion diameters were measured. The area of the lesion was calculated and expressed in square millimeters. Following diameter measurements, Evan's Blue dye was extracted from the skin tissue and the optical density was measured. Data are calculated against a spiked in Evan's Blue standard curve. The extent of compound efficacy was quantitated by calculating both the overall skin spot area and the amount of Evans Blue dye permeating the skin. 20 Minutes post challenge with histamine, animals were euthanized, the lesion diameters were measured. The area of the lesion was calculated and expressed in square millimeters. […]

Compound `CNC(C(=O)Nc1ccc(-c2cn[nH]c2)cc1)c1cccc(OC)c1` (stereo not shown) [Example 2, N-(4-(1H-pyrazol-4-yl)phenyl)-2-(3-methoxyphenyl)-2-(methylamino)acetamide] has a concentration at 0.25 hr ([1]; brain, 0.25 hr, read-out: Mean Conc. at 0.25 hr, Brain) of 541 ng/g, a concentration at 2 hr ([1]; brain, 2 hr, read-out: Mean Conc. at 2 hr, Brain) of 76.6 ng/g and a concentration at 0.25 hr ([1]; plasma, 0.25 hr, read-out: Mean Conc. at 0.25 hr, Plasma) of 268 ng/mL. For the same compound, the concentration at 2 hr ([1]; plasma, 2 hr, read-out: Mean Conc. at 2 hr, Plasma) was 25.7 ng/mL, the Kp at 0.25 h ([1]; brain/plasma, 0.25 hr, read-out: Mean Brain/Plasma Ratio at 0.25 hr) was 2.01 and the Kp at 2 h ([1]; brain/plasma, 2 hr, read-out: Mean Brain/Plasma Ratio at 2 hr) was 2.99. The IC50 [2] was 4 nM, the “Ashcroft fibrotic indices, αSMA percentage positive area and total leukocytes count in bronchoalveolar lavage fluid” value [3] was “positive activity” and the IC50 [4] was 352 nM. For the same compound, the “vascular permeability induced by histamine (Evan's Blue extravasation)” value [5] was “blocked the vascular permeability induced by histamine in a dose dependent manner”.
